Bridge positions count the residues as written; N and C are the ends. Ends that are not written are not given here.
Test system: patients with chronic idiopathic constipation (CIC)
Assay: Second phase 3 CIC trial: durable overall CSBM responders
Format: in vivo, human
Conditions: MRA; for Difference in Proportions (adjusted), durable overall CSBM responders / Odds Ratio (adjusted), durable overall CSBM responders: adjusted for gender
Description: Both trials include a two-week pre-treatment baseline period, a 12-week treatment period, and a two-week post-treatment period. The phase 3 CIC program was designed to support regulatory submission in the U. S.
The primary endpoint for both trials is the proportion of durable overall responders (%), which is the current regulatory endpoint required for U.S. approval in CIC. The FDA has defined a durable overall responder as a patient who fulfills both ≧3 complete spontaneous bowel movements (CSBMs) per week plus an increase of ≧1 CSBM from baseline in the same week, for 9 out of the 12 treatment weeks. In addition, the same patient must be an overall responder for at least 3 of the last 4 treatment weeks in order to be considered a durable overall responder.
Patients were selected using Rome 3 criteria modified for CIC and had (1) fewer than 3 defecations per week, (2) loose stools occurring rarely without laxatives, (3) inadequate criteria for irritable bowel syndrome with constipation (IBS-C), and (4) at least two of the following applied to at least 25% of defecations: (a) straining during evacuation, (b) lumpy or hard stools, (c) sensation of anorectal obstruction or blockage. Rome 3 requires patients to fulfill the criteria for the last 3 months with symptom onset at least 6 months prior to diagnosis.

[1] = Active Combined (N = 877), ITT Population-Excluding Duplicate Patients
[2] = Active Combined (N = 892), ITT Population
[3] = Active Combined (N = 941), All Randomized (includes Duplicate Patients)
[4] = Plecanatide 3 mg (N = 434), ITT Population-Excluding Duplicate Patients
[5] = Plecanatide 3 mg (N = 443), ITT Population
[6] = Plecanatide 3 mg (N = 470), All Randomized (includes Duplicate Patients)
[7] = Plecanatide 6 mg (N = 443), ITT Population-Excluding Duplicate Patients
[8] = Plecanatide 6 mg (N = 449), ITT Population
[9] = Plecanatide 6 mg (N = 471), All Randomized (includes Duplicate Patients)

For “Asn^1-Asp^2-Glu^3-Cys^4-Glu^5-Leu^6-Cys^7-Val^8-Asn^9-Val^10-Ala^11-Cys^12-Thr^13-Gly^14-Cys^15-Leu^16 (NDECELCVNVACTGCL; disulfide 4-12, 7-15) [Plecanatide, uroguanylin analogue, guanylate cyclase-C agonist; (C4:C12, C7:C15) bicycle peptide]”, the “Durable Overall CSBM Responders, %” value [1] was 20.4%, the “Non-Responders, %” value [1] was 79.6% and the “Durable Overall CSBM Responders, %” value [2] was 20.1%. The “Non-Responders, %” value [2] was 79.9%, the “Durable Overall CSBM Responders, %” value [3] was 19.7% and the “Non-Responders, %” value [3] was 80.3%. For the same substance, the “Durable Overall CSBM Responders, %” value [4] was 20.5%, the “Non-Responders, %” value [4] was 79.5% and the “Durable Overall CSBM Responders, %” value [5] was 20.1%. The “Non-Responders, %” value [5] was 79.9%, the “Durable Overall CSBM Responders, %” value [6] was 19.8% and the “Non-Responders, %” value [6] was 80.2%. The “Difference in Proportions (adjusted), durable overall CSBM responders” value (from here on “Difference in Proportions (adjusted)”) (Plecanatide 3 mg minus Placebo, All Randomized (includes Duplicate Patients)) was 0.076, the “Difference in Proportions (adjusted)” value (Plecanatide 3 mg minus Placebo, ITT Population) was 0.073 and the “Difference in Proportions (adjusted)” value (Plecanatide 3 mg minus Placebo, ITT Population-Excluding Duplicate Patients) was 0.075. The “Odds Ratio (adjusted), durable overall CSBM responders” value (“Odds Ratio (adjusted)” for short) (Plecanatide 3 mg, All Randomized (includes Duplicate Patients)) was 0.562, the “Odds Ratio (adjusted)” value (Plecanatide 3 mg, ITT Population) was 0.586 and the “Odds Ratio (adjusted)” value (Plecanatide 3 mg, ITT Population-Excluding Duplicate Patients) was 0.583. For the same substance, the “Durable Overall CSBM Responders, %” value [7] was 20.3%, the “Non-Responders, %” value [7] was 79.7% and the “Durable Overall CSBM Responders, %” value [8] was 20.0%. For the same substance, the “Non-Responders, %” value [8] was 80.0%, the “Durable Overall CSBM Responders, %” value [9] was 19.5% and the “Non-Responders, %” value [9] was 80.5%. The “Difference in Proportions (adjusted)” value (Plecanatide 6 mg minus Placebo, All Randomized (includes Duplicate Patients)) was 0.074, the “Difference in Proportions (adjusted)” value (Plecanatide 6 mg minus Placebo, ITT Population) was 0.072 and the “Difference in Proportions (adjusted)” value (Plecanatide 6 mg minus Placebo, ITT Population-Excluding Duplicate Patients) was 0.073. The “Odds Ratio (adjusted)” value (Plecanatide 6 mg, All Randomized (includes Duplicate Patients)) was 0.571, the “Odds Ratio (adjusted)” value (Plecanatide 6 mg, ITT Population) was 0.587 and the “Odds Ratio (adjusted)” value (Plecanatide 6 mg, ITT Population-Excluding Duplicate Patients) was 0.589.

Source: patent US20160367623A1, “AGONISTS OF GUANYLATE CYCLASE USEFUL FOR THE TREATMENT OF GASTROINTESTINAL DISORDERS, INFLAMMATION, CANCER AND OTHER DISORDERS” (priority 2015, published 2016)
